Read-outs that look alike come from different tables or passages of the source.
Assays:
[1] = test system: GT-1b Huh-lunet cells; assay: Biological Example 4: antiviral combination studies with Compound 5 (MacSynergy II); format: cell-based, HCV; settings: in combination with Compound 5, 1b replicon cells
[2] = test system: HCV genotype 1a replicon; assay: Biological Example 3: antiviral combination studies with Compound 4 (MacSynergy II); settings: in combination with Compound 4
[3] = test system: Huh-7 cells carrying a HCV genotype 1a replicon; assay: Biological Example 3: cytotoxicity in combination studies (MacSynergy II); settings: in combination with Compound 4
[4] = test system: HCV genotype 1a replicon; assay: Biological Example 3: HCV genotype 1a replicon assay, EC50; format: cell-based; settings: Hepatitis C virus, 72 h, 3 days, read-out: EC50
Method: The HCV genotype 1a replicon cell line used in this study was described previously. The cells were grown in cell culture medium containing Dulbecco's Modified Eagle Medium (DMEM) with GlutaMAX (Gibco, Carlsbad, Calif., Cat#10569-044), supplemented with 10% FBS (HyClone, Logan, Utah, Cat#SH30071.03), 100 Units/mL Penicillin, 100 μg/mL Streptomycin (Gibco, Carlsbad, Calif., Cat#15140-122), and 0.1 mM non-essential amino acids (Gibco, Carlsbad, Calif., Cat#11140-050). Replicon cells were maintained in 0.5 mg/mL Geneticin (Invitrogen, Carlsbad, Calif., Cat#10131-035) to prevent the loss of HCV replicon. The cells were passaged every 3-4 days before reaching confluency.
(§1) [formula] where XC is the fluorescence signal from the compound-treated well; MB is the average fluorescence signal from puromycin-treated wells; MD is the average fluorescence signal from DMSO-treated wells. The anti-HCV replication activity was determined by the luminescence signal generated from the reporter renilla luciferase of the HCV replicon. The percent inhibition on HCV replicon was calculated using equation 1, where XC is the luminescence signal from compound-treated well; MB is average luminescence signal from the ITMN-191-treated wells; MD is the average luminescence signal from DMSO-treated wells.
(§2) Both CC50 and EC50 values were obtained using Pipeline Pilot 5.0 software package (Accelrys, San Diego, Calif.) by nonlinear regression fitting of experimental data to equation 2: […]

[5] = Biological Example 3: cytotoxicity (calcein AM), CC50; format: cell-based; settings: human, Huh-7 cells carrying a HCV genotype 1a replicon; HCV genotype 1a replicon cells; calcein AM
Method: The HCV replicon assay was a multiplex assay which can assess both cytotoxicity and anti-replicon activity from the same well. The CC50 assay was performed first.
The cytotoxicity effect was determined by calcein AM conversion to fluorescent product. The percent cytotoxicity was calculated by equation 1:
as §1, §2

[6] = test system: HCV 1b replicon system; assay: Biological Example 5: antiviral combination studies with Compound 6 (MacSynergy II); format: cell-based; settings: in combination with Compound 6
[7] = test system: GT1b and GT1a mutant replicons; assay: Biological Example 8: summary of cross resistance of mutant replicons; format: cell-based, HCV; settings: triple class mutants that confer resistance to PI, NS5A and Compound 1
Method: (§3) GT1b and GT1a replicons carrying Renilla Luciferase reporter were used to generate the mutant replicons. The mutations were introduced into the replicon construct by site-directed mutagenesis and confirmed by sequencing. Mutant replicon RNAs were generated from DNA by in vitro transcription and transfected into Huh-7 Lunet or C1 cells
(§4) Compounds were serially diluted 1:3 in 100% DMSO (Sigma). These serial dilutions were added to the cells at a 1:200 dilution to achieve a final concentration of 0.5% DMSO in a total volume of 200 μL. […] EC50 values were calculated using Prism.
(§5) For comparison, a fold change of 0-3 is considered “sensitive”, a fold change of 3-10 is considered “low”, a fold change of 10-50 is considered “medium” and a fold change of greater than […] is considered “high”.

[8] = test system: NS3 GT1b mutant replicons; format: cell-based, HCV
Method: as §3, §4, §5

[9] = test system: NS3 GT1a mutant replicons; format: cell-based, HCV
Method: as §3, §4, §5

Compound: COc1ccc2c(O[C@@H]3C[C@H]4C(=O)N[C@]5(P(=O)(O)Cc6c(F)cccc6F)C[C@H]5CCCCCCC[C@H](NC(=O)OC5CCCC5)C(=O)N4C3)cc(-c3csc(NC(C)C)n3)nc2c1Cl [Compound 2, (2R,6S,13aR,14aS,16aS)-2-(8-chloro-2-(2-(isopropylamino)thiazol-4-yl)-7-methoxyquinolin-4-yloxy)-6-(cyclopentyloxycarbonylamino)-5,16-dioxooctadecahydrocyclopropa[e]pyrrolo[1,2-a][1,4]diazacyclopentadecin-14a-yl(2,6-difluorobenzyl)phosphinic acid]
- Interaction [1]: Additive
- Synergy Volume [1]: 22 ± 12 nM^2
- Antagonism Volume [2]: −2 ± 3 nM^2%
- Interaction [2]: Additivity (Additivity: ≦25 and >−25 nM^2%)
- Synergy Volume [2]: 22 ± 14 nM^2%
- Antagonism Volume (cytotoxicity) [3]: 0 ± 0 nM^2%
- Interaction (cytotoxicity) [3]: Additivity (Additivity: ≦25 and >−25 nM^2%)
- Synergy Volume (cytotoxicity) [3]: 17 ± 14 nM^2%
- EC50 [4]: 496 ± 135 nM
- CC50 at 3 days [5]: > 22200 nM
- Interaction [6]: Moderate Synergy

Compound: CC1=CC[C@H](C(=O)N(c2cc(C#CC(C)(C)C)sc2C(=O)O)[C@H]2CC[C@](O)(CO[C@H]3CCOC3)CC2)CC1 [Compound 5, 5-(3,3-dimethylbut-1-yn-1-yl)-3-[(cis-4-hydroxy-4-{[(3S)-tetrahydrofuran-3-yloxy]methyl}cyclohexyl){[(1R)-4-methylcyclohex-3-en-1-yl]carbonyl}amino]thiophene-2-carboxylic acid]
- Antagonism Volume [2]: −1 ± 3 nM^2%
- Synergy Volume [2]: 26 ± 28 nM^2%
- Antagonism Volume (cytotoxicity) [3]: −10 ± 7 nM^2%
- Interaction (cytotoxicity) [3]: Additivity (Additivity: ≦25 and >−25 nM^2%)
- Synergy Volume (cytotoxicity) [3]: 15 ± 8 nM^2%
- EC50 [4]: 15 ± 2.4 nM
- susceptibility of mutants [7]: susceptible
- CC50 at 3 days [5]: > 44400 nM
- fold change in EC50 vs wild-type GT1b ([8]; mutant A156D): 0.8 fold
- fold change in EC50 vs wild-type GT1b ([8]; mutant A156G): 0.8 fold
- fold change in EC50 vs wild-type GT1b ([8]; mutant A156T): 0.7 fold
- fold change in EC50 vs wild-type GT1b ([8]; mutant A156V): 0.8 fold
- fold change in EC50 vs wild-type GT1b ([8]; mutant D168A): 0.9 fold
- fold change in EC50 vs wild-type GT1b ([8]; mutant D168E): 0.9 fold
- fold change in EC50 vs wild-type GT1b ([8]; mutant D168E + L31V + Y448H): 0.8 fold
- fold change in EC50 vs wild-type GT1b ([8]; mutant D168E + Y93H + Y448H): 0.5 fold
- fold change in EC50 vs wild-type GT1b ([8]; mutant D168E + Y448H): 0.4 fold
- fold change in EC50 vs wild-type GT1b ([8]; mutant D168G): 0.8 fold
- fold change in EC50 vs wild-type GT1b ([8]; mutant D168H): 1.0 fold
- fold change in EC50 vs wild-type GT1b ([8]; mutant D168H + C445F): 0.4 fold
- fold change in EC50 vs wild-type GT1b ([8]; mutant D168L + C445F): 0.2 fold
- fold change in EC50 vs wild-type GT1b ([8]; mutant D168N): 1.1 fold
- fold change in EC50 vs wild-type GT1b ([8]; mutant D168T): 1.0 fold
- fold change in EC50 vs wild-type GT1b ([8]; mutant D168V): 1.3 fold
- fold change in EC50 vs wild-type GT1b ([8]; mutant D168V + C445F): 0.3 fold
- fold change in EC50 vs wild-type GT1b ([8]; mutant D168V + L31V + Y448H): 0.6 fold
- fold change in EC50 vs wild-type GT1b ([8]; mutant D168V + Y93H + Y448H): 0.6 fold
- fold change in EC50 vs wild-type GT1b ([8]; mutant D168V + Y448H): 0.5 fold
- fold change in EC50 vs wild-type GT1b ([8]; mutant D168Y): 1.1 fold
- fold change in EC50 vs wild-type GT1b ([8]; mutant L31V + D168E): 1.3 fold
- fold change in EC50 vs wild-type GT1b ([8]; mutant L31V + D168V): 1.1 fold
- fold change in EC50 vs wild-type GT1b ([8]; mutant R155C): 0.6 fold
- fold change in EC50 vs wild-type GT1b ([8]; mutant R155G): 0.8 fold
- fold change in EC50 vs wild-type GT1b ([8]; mutant R155K): 1.2 fold
- fold change in EC50 vs wild-type GT1b ([8]; mutant R155L): 0.8 fold
- fold change in EC50 vs wild-type GT1b ([8]; mutant R155Q): 0.6 fold
- fold change in EC50 vs wild-type GT1b ([8]; mutant R155W): 0.5 fold
- fold change in EC50 vs wild-type GT1b ([8]; mutant Y93H + D168E): 1.0 fold
- fold change in EC50 vs wild-type GT1b ([8]; mutant Y93H + D168V): 0.5 fold
- fold change in EC50 vs wild-type GT1a ([9]; mutant A156T): 0.4 fold
- fold change in EC50 vs wild-type GT1a ([9]; mutant D168A): 1.1 fold
- fold change in EC50 vs wild-type GT1a ([9]; mutant D168E): 0.7 fold
- fold change in EC50 vs wild-type GT1a ([9]; mutant D168G): 1.0 fold
- fold change in EC50 vs wild-type GT1a ([9]; mutant D168H): 1.1 fold
- fold change in EC50 vs wild-type GT1a ([9]; mutant D168N): 1.3 fold
- fold change in EC50 vs wild-type GT1a ([9]; mutant D168V): 1.1 fold
- fold change in EC50 vs wild-type GT1a ([9]; mutant D168Y): 0.7 fold
- fold change in EC50 vs wild-type GT1a ([9]; mutant R155I): 0.7 fold
- fold change in EC50 vs wild-type GT1a ([9]; mutant R155K): 0.8 fold
- fold change in EC50 vs wild-type GT1a ([9]; mutant R155K + L31M): 0.4 fold
- fold change in EC50 vs wild-type GT1a ([9]; mutant R155K + L31M + Y448H): 0.3 fold
- fold change in EC50 vs wild-type GT1a ([9]; mutant R155K + M28T): 0.8 fold
- fold change in EC50 vs wild-type GT1a ([9]; mutant R155K + M28T + Y448H): 0.3 fold
- fold change in EC50 vs wild-type GT1a ([9]; mutant R155K + Q30H + Y448H): 0.5 fold
- fold change in EC50 vs wild-type GT1a ([9]; mutant R155K + Q30R): 1.5 fold
- fold change in EC50 vs wild-type GT1a ([9]; mutant R155K + Y93H): 0.6 fold
- fold change in EC50 vs wild-type GT1a ([9]; mutant R155K + Y488H (first line, r20)): 1.0 fold
- fold change in EC50 vs wild-type GT1a ([9]; mutant R155K + Y488H (second line, r26)): 0.6 fold
- fold change in EC50 vs wild-type GT1a ([9]; mutant R155M): 0.7 fold
- fold change in EC50 vs wild-type GT1a ([9]; mutant R155S): 0.5 fold
- fold change in EC50 vs wild-type GT1a ([9]; mutant R155T): 0.6 fold
- fold change in EC50 vs wild-type GT1a ([9]; mutant R155W): 1.0 fold
- fold change in EC50 vs wild-type GT1a ([9]; mutant R155k + Q30H): 0.6 fold

Reference: patent US9452154B2, “Methods for treating HCV” (Gilead Sciences, Inc., priority 2010, dated 2016)
